Our source for the IC50 values is patent publication US9605027B2, “Polypeptides that bound to IL-23 receptor and inhibit binding of IL-23 and cell signaling thereof” (Medical Diagnostic Laboratories, LLC, priority 2011, dated 2017).

pIC50: −log10 of the molar value. Peptide text beside a SMILES is read from it.

In test [1] the target is IL-23 induced IL-22 production in human PBMCs (Homo sapiens, UniProt Q5VWK5). Put plainly: IL-22 production induced by IL-23 in human PBMC. Type of test: cell-based. Conditions: IL-23 2 ng/ml, ELISA; read-out: IC50, inhibition of IL-22 production. The procedure:
Peripheral blood mononuclear cells (PBMCs) were isolated from heparinized venous whole blood from healthy donors by density gradient centrifugation using Ficoll-Paque (Sigma-Aldrich, St Louis, Mo., USA). Human venous blood was purchased as anonymous buffy coats from the New Jersey Blood Transfusion Service. After isolation, the PBMCs were cultured in RPMI-1640 medium (Invitrogen-Gibco, Carlsbad, Calif.) supplemented with 10% heat-inactivated fetal bovine serum (Invitrogen-Gibco) and 1 mM of glutamine (Invitrogen-Gibco) at 37° C.
Isolated PBMCs (5×10^6 cells/ml) were cultured in the presence of […] and IL-18 (20 ng/ml). A serial dilution of IL-23 (from 0-2 ng/ml) was added to the cell culture for 30 hours. We measured the production of IL-22 by ELISA (Catalog #88-7522, eBioscience, San Diego, Calif.) according to manufacturer's protocol).
In order to measure the IC50 value of cyclic peptide no. 2HT AA (SEQ ID NO: 177), the cells were treated with a fixed amount of IL-23 cytokine (2 ng/ml) in the presence of a serial dilution of cyclic peptide no. 2HT AA (SEQ ID NO: 177). The cyclic peptide (SEQ ID NO: 177) inhibits IL-23 cytokine in PBMCs in a dose-dependent manner. […] Thus, the cyclic peptide no.

Test [2] relates to IL-23 induced IL-17F in rat splenocytes. Briefly: IL-17F mRNA expression induced by IL-23 in rat splenocytes. Type of test: cell-based. Conditions: IL-23 200 ng/ml, qRT-PCR; read-out: IC50, inhibition of IL-17F mRNA expression. As to the method: Sprague Dawley (SD) rat spleen was isolated and placed in 3 ml of media (RPMI 1640 with 10% FBS) in a small petri dish (35×10 mm). The rat spleen was placed on a sterile wire mesh screen using sterile forceps. The rat spleen was pushed through the screen with the plunger of a 10 ml syringe into the petri dish. Then, the suspension was mixed by gently pipetting up and down. The cells were spun down at 1,000 rpm for 10 minutes. Red blood cells were lysed by adding a Red Blood Cell lysis buffer. The cell suspension was incubated at room temperature for 5 minutes. The cells were spun down at 1,000 rpm for 10 minutes. The pelleted splenocytes were washed twice with PBS. After washing, the isolated splenocytes were re-suspended in 10 ml of culture media (RPMI 1640 with 10% FBS).
Rat splenocytes (2.5×10^6 cells/ml) were prepared and cultured in RPMI-1640 with 10% FBS for 16 hours at 37° C. Cyclic peptide no. […] The stimulation was carried out for an additional 4 hours. mRNA expression of IL-17F was measured by qRT-PCR (rat IL-17F forward primer (GGC-TCC-TGT-GAA-ACA-ACC-AT)(SEQ ID NO: 180) and rat IL-17F reverse primer (ACA-GAA-ATG-CCC-TGG-TTT-TG) (SEQ ID NO: 181). The PCR was performed under the following conditions: 95° C. for 5 minutes, 95° C. for 30 seconds, 60° C. for 30 seconds 72° C. for 30 seconds, times 40 cycles. […]

IL-23 induced IL-22 production in human PBMCs, sequence (Q5VWK5 24-629 limits assumed): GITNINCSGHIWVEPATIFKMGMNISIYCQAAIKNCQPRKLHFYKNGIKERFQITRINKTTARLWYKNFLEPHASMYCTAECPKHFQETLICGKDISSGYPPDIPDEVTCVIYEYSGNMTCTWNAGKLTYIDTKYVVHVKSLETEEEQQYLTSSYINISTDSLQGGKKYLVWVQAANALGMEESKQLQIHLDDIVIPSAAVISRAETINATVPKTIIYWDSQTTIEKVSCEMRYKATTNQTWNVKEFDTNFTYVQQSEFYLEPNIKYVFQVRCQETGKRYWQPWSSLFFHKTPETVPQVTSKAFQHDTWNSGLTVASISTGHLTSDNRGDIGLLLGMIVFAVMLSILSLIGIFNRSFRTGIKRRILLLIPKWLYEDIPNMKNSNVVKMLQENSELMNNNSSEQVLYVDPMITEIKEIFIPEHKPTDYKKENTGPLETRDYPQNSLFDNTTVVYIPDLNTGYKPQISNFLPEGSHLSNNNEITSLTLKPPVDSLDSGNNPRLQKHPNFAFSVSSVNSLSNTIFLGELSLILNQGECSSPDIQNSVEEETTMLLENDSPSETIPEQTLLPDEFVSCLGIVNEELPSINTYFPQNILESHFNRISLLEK

`CSCC[C@@H]1NC(=O)[C@H](CCCCN)NC(=O)[C@H](C)NC(=O)[C@H](C)NC(=O)[C@H](CS)NC(=O)[C@H](CC(N)=O)NC(=O)[C@H](CCCCN)NC(=O)[C@H](CC(C)C)NC(=O)[C@H](Cc2c[nH]c3ccccc23)NC(=O)[C@H](Cc2ccc(O)cc2)NC(=O)[C@H](CC(=O)O)NC(=O)[C@H](C(C)C)NC(=O)[C@H](Cc2c[nH]c3ccccc23)NC(=O)[C@H]([C@@H](C)O)NC1=O` [2HT AA] (cyclo(AAKMTWVDYWLKNC)): the negative-log IC50 (pIC50) in test [1] is 6.47; in test [2], 6.57.

By pIC50 is commonly meant −log10 of the IC50, conventionally taken in molar units.
